The test system of data set [1] is 8392 (B-cell leukemia/lymphoma) cells. In words: Test A in vitro cytotoxicity, 2 hour exposure, [3H]-thymidine incorporation. It is filed as cell-based. As to conditions: read-out: 2 hour IC50 8392, mean ± 1 standard deviation. The protocol:
(§1) To assess cytotoxic effects, various concentrations of compounds of the invention were added to cultures of MV522 (human lung carcinoma cell line), HL60 (myeloid leukemia cells), and 8392 (B-cell leukemia/lymphoma) cells for 48 hours, then cell growth/viability was determined by trypan blue exclusion. As an alternative to 48 hour continuous exposure studies, cells were plated in liquid culture in 96 well plates, exposed to various concentrations of compounds of the invention for 2 hours, pulsed with [^3H]-thymidine for one to two hours and harvested onto filter papers. The filter papers were added to vials containing scintillation fluid and residual radioactivity determined in a beta (scintillation) counter.
(§2) Values are reported as mean±1 standard deviation; units are nanomoles per liter; and NT signifies not tested.
(In general: Uptake of a labelled nucleoside into DNA is a usual measure of proliferation.)

Data set [2] deals with MV522 lung carcinoma xenograft. In words: Test B in vivo MV522 lung carcinoma xenograft. As to conditions: for MTD reached in Test B: daily IP for 5 consecutive days, MV522 xenograft mice; for relative tumor weight Wt/Wi Day 17 / relative tumor weight Wt/Wi Day 24 / relative tumor weight Wt/Wi Day 31: i.p. QD×5 on days 10-14, day ten = 1.0, dose: 1 14 mg/kg, 2 35 mg/kg, 13 32 mg/kg, 14 28 mg/kg. From the text: Several representative compounds of the invention were chosen for in vivo studies. […] Drug therapy was started 10 days after inoculation on a daily basis via IP route for 5 consecutive days. The animals were monitored for 3 weeks after start of therapy.
BALB/c nu/nu 4-week old female mice weighing 18–22 g were obtained from Simonsen, Inc. (Gilroy, Calif.) and maintained in the athymic mouse colony of the University of California (San Diego, Calif.) under pathogen free conditions using HEPA filter hoods. Animals were provided with sterilized food and water ad libitum in groups of 5 in plastic cages vented with polyester fiber filter covers. Clean, sterilized gowns, glove, face masks, and shoe and hood covers were worn by all personnel handling the animals. All studies were conducted in accordance with guidelines of the NIH “Guide for Care and Use of Animals” and approved by the University Institutional Animal Care and Use Committee (Protocol 3-006-2)
The MV522 lung carcinoma line used for xenograft studies was derived as described by Kelner et al. (Anticancer Res., 15: 867–872; 873–878 (1995)) and maintained in antibiotic-free RPMI 1640 (Mediatech, Herndon, Va.) supplemented with 10% fetal bovine serum and 2 mM glutamine in 37° C. humidified carbon dioxide incubator.
Each animal was earmarked and followed individually throughout the experiments. Mice received s.c. injections of the parental cell line MV522 using 10 million cells/inoculation over the shoulder. Ten days after s.c. implantation of the MV522 cells, when s.c. tumors were approximately 3×3 mm in size, animals received the desired drug and dosage. The effect of the compound on life span was calculated from median survival.
Although MV522 cells kill mice by metastases, primary s.c. tumor growth over the shoulder was monitored starting on the first day of treatment and at weekly intervals thereafter. Tumor size was measured in two perpendicular diameters. Tumor weights were estimated according to the formula w=(width)^2×length/2). Relative weights (RW) were calculated to standardized variability in tumor size among test groups at initiation of treatment using the formula RW=Wt/wi, where Wi is the tumor weight for a given animal at beginning of drug treatment and Wt is tumor weight at a subsequent time. Animals were necropsied, and organs were examined for evidence of metastases.
Comparison of survival curves between groups of animals was by the method of Kaplan and Meier. For comparison of relative tumor weights between multiple groups of animals, ordinary ANOVA followed by Tukey-Kramer multiple Comparison post ANOVA analysis was performed (Kelner et al. (Anticancer Res., 15: 867–872; 873–878 (1995)). Probability values (p) less than 0.05 were considered statistically significant.
Data was collected using eight animals in the control studies and four animals in each compound study. Values represent relative tumor weight or Wt/Wi (day ten by definition is 1.0). Drug was administered i.p. on days 10, 11, 12, 13, and 14 (QD×5 days).

Data set [3] has as its system MV522 (human lung carcinoma cell line). The data set can be described thus: Test A in vitro cytotoxicity, 2 hour exposure, [3H]-thymidine incorporation. Conditions: read-out: 2 hour IC50 MV522, mean ± 1 standard deviation. The class given is cell-based. The protocol: as §1, §2
For data set [4], the system named is HL60 (myeloid leukemia cells). The data set is described as above. It is filed as cell-based. Conditions: read-out: 2 hour IC50 HL60, mean ± 1 standard deviation. The protocol: as §1, §2
Data set [5] in a line: Tolerated dose / toxicity on administration. Conditions: chronically administered at 35 mg/kg. From the text: As one skilled in the art would recognize, the amount can be varied depending on the method of administration.
The next data set relates to Dunning leukemia. Conditions: rats with Dunning leukemia; cited from earlier work.
For another data set, the system named is solid tumor systems. As to conditions: cited from earlier work.

One may read the IC50 as the concentration needed to halve the response being measured.

For `CC1=C2C=C(CO)C=C2C(=O)C(C)(O)C12CC2` (centres unmarked) [Compound 1], in data set [1], the IC50 turned out to be 37 µM. Further, in data set [2], the “MTD reached in Test B” value is “not”, the “relative tumor weight Wt/Wi Day 17” value is listed as 1.4 ± 0.7, the “relative tumor weight Wt/Wi Day 24” value is 7.0 ± 1.3 and the “relative tumor weight Wt/Wi Day 31” value is on record as 11.8 ± 3.0.
Consider `CC(=O)N[C@@H](CSCC1=C(C)C=C2C(=O)C(C)(O)C3(CC3)C(C)=C21)C(=O)O` (some centres unmarked) [Compound 13], for which the half-maximal inhibitory concentration (IC50) in data set [3] came to 10 µM. For the same compound, in data set [2], the “relative tumor weight Wt/Wi Day 17” value stood at 2.3 ± 0.5, the “relative tumor weight Wt/Wi Day 24” value stood at 4.1 ± 0.8 and the “relative tumor weight Wt/Wi Day 31” value stood at 4.7 ± 1.5.
`COCC1=C(CO)C=C2C(=O)C(C)(O)C3(CC3)C(C)=C21` (centres unmarked) [Compound 8]: the IC50 in data set [4] and in data set [3] was greater than 80 µM throughout.
With `CC(=O)N[C@@H](CSCC1=C(C)C=C2C(=O)C(C)(O)C3(CC3)C(C)=C21)C(=O)N[C@H](C)c1ccccc1` (some centres unmarked) [Compound 14], the IC50 in data set [3] came to 3.05 µM. Further, in data set [2], the “relative tumor weight Wt/Wi Day 17” value is on record as 3.2 ± 0.6, the “relative tumor weight Wt/Wi Day 24” value turned out to be 4.1 ± 0.8 and the “relative tumor weight Wt/Wi Day 31” value worked out at 6.0 ± 1.8.
As for `CC1=C2C(=CC(CO)=C2CO)C(=O)C(C)(O)C12CC2` (centres unmarked) [Compound 2], the half-maximal inhibitory concentration (IC50) in data set [3] is 11.3 µM. Besides, in data set [2], the “MTD reached in Test B” value is recorded as “not”, the “relative tumor weight Wt/Wi Day 17” value was found to be 2.1 ± 0.2, the “relative tumor weight Wt/Wi Day 24” value came to 3.3 ± 0.3 and the “relative tumor weight Wt/Wi Day 31” value is 4.0 ± 0.9. Further, the “toxicity on chronic administration” value in data set [5] was “without toxicity”.
On to `CC(=O)OCC1=CC2=C(C)C3(CC3)C(C)(O)C(=O)C2=C1` (centres unmarked) [Compound 3], for which the IC50 came to 62 µM in data set [1], 15.6 µM in data set [4] and 19.6 µM in data set [3].
For the compound `COCC1=C(COC)C2=C(C)C3(CC3)C(C)(O)C(=O)C2=C1` (centres unmarked) [Compound 9], the IC50 in data set [4] was 49.8 µM; in data set [3], greater than 50 µM.
Turning to `CC1=C2C(=CC(C)(C)[C@@H]2O)C(=O)[C@](C)(O)C12CC2` [Illudin M], in the data set with Dunning leukemia, the life span entry is listed as “significantly increased”. Besides, in the data set on solid tumor systems, the therapeutic index result is recorded as “low”.
With `CC(=O)OCC1=C(COC(C)=O)C2=C(C)C3(CC3)C(C)(O)C(=O)C2=C1` (centres unmarked) [Compound 5], the IC50 in data set [4] was found to be 38.4 µM.
`COCC1=CC2=C(C)C3(CC3)C(C)(O)C(=O)C2=C1` (centres unmarked) [Compound 7]: the IC50 in data set [4] was 6 µM.
For `CC(=O)OCC1=C(CO)C=C2C(=O)C(C)(O)C3(CC3)C(C)=C21` (centres unmarked) [Compound 4], the 50% inhibitory concentration (IC50) in data set [4] is greater than 40 µM; in data set [3] it was 20.4 µM.

The values are drawn from patent publication US7141603B2, “Antitumor agents” (The Regents of The University California, priority 1999, dated 2006).
